# Reference: patent publication US20250250230A1, “HETEROCYCLIC COMPOUND” (TAKEDA PHARMACEUTICAL COMPANY LIMITED, priority 2022, published 2025)
# Key:
# [1] = target: T1, human orexin type 2 receptor (Homo sapiens, UniProt O43614); assay: Measurement of orexin type 2 receptor agonist activity (calcium fluorescence, Fluo-4 AM, FDSS); type: cell-based; details: test compound 3 μM; CHO cells expressing human OX2 receptor; DMSO = 0%, orexin A (human) = 100%
# T1 construct: expressed in transfected cells
# T1 sequence (O43614 1-444): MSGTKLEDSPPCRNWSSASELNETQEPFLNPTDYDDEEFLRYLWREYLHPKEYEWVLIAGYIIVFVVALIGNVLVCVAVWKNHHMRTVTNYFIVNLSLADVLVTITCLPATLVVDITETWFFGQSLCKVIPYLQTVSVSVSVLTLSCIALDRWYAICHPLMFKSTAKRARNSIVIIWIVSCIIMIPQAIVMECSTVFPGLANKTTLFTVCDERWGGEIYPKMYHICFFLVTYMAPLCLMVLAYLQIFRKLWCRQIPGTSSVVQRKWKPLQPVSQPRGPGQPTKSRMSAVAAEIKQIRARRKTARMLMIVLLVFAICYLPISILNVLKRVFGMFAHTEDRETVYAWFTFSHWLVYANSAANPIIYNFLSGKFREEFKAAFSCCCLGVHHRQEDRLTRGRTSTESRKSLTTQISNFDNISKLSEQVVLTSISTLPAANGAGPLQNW
# Summary of the method: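 Agonist response scaled between vehicle (0%) and human orexin A at 10 nM final (100%), from 2-min kinetic Fluo-4 fluorescence reads. Stable hOX2R CHO-K1 clone, dye-loaded in HBSS/20 mM HEPES/0.1% BSA with 1.25 mM probenecid before compound addition.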
# cynomolgus monkeys = assay: Evaluation of wake-promoting effects in cynomolgus monkeys (EEG/EMG); type: in vivo, cynomolgus monkey; details: 10 mg/kg p.o. at ZT12, time spent in wakefulness for 4 h after administration, male cynomolgus monkeys, n=2
# Protocol: The wake-promoting effects were evaluated by measuring the electroencephalogram (EEG) and electromyogram (EMG) in cynomolgus monkeys. Under isoflurane anesthesia (0.5-5%, Pfizer Japan Inc., Tokyo, Japan), male cynomolgus monkeys (2-3 years old, Hamri Co., Ltd., Ibaraki, Japan) were surgically implanted with radio-telemetry transmitters (L03-F3, Data Sciences International Inc., MN, USA). EEG electrodes were screwed into the skull at the parietal area. EMG electrodes were implanted on the cervical muscles. After the surgery, each monkey was given penicillin (100,000 units/head, i.m., Meiji Seika Pharma Co., Ltd., Tokyo, Japan), buprenorphine (0.02 mg/kg, i.m., Otsuka Pharmaceutical Co., Ltd., Tokyo, Japan) and prednisolone (1 mg/kg, s.c., Kyoritsu Seiyaku Co., Ltd., Tokyo, Japan) daily for one week. After at least a 1-month recovery period in home cages, the monkeys were habituated to the recording chamber placed in a soundproof room. EEG and EMG signals were recorded using the telemetry system (Ponemah software, Data Sciences International Inc., MN, USA) and the signals were analyzed using SleepSign software (Kissei Comtec Co., Ltd., Nagano, Japan). After confirming long sleep in dark phase in the experimental room, we used animals to examine the wake-promoting effect of compounds. Test compounds (10 mg/kg) suspended in 0.5% methylcellulose aqueous solution, or vehicle (i.e., 0.5% methylcellulose aqueous solution) was administered orally (p.o.) to monkeys at zeitgeber time 12 (ZT12) in a volume of 5 mL/kg body weight in pre-post design (n=2). EEG and EMG recordings were performed for 4 h after the compound administration. The time spent in wakefulness for 4 h after administration (% of vehicle treatment) was calculated by using SleepSign.
Compound,"OX2R agonist activity (3 μM, %) [1] [%]",Wakefulness time (% of vehicle treatment) (Mean) (cynomolgus monkeys)
"C[C@H](NS(C)(=O)=O)[C@@H]1CCN1C(=O)[C@@H]1C[C@@]1(F)c1ccccc1-c1c(F)cccc1F [Example 353, N-[(1S)-1-{(2S)-1-[(1S,2S)-2-(2′,6′-difluoro [1,1′-biphenyl]-2-yl)-2-fluorocyclopropane-1-carbonyl]azetidin-2-yl}ethyl]methanesulfonamide]",102,397.50 % of vehicle treatment
"C[C@@H]1CN(C(=O)[C@@H]2C[C@@]2(F)c2ccccc2-c2c(F)cccc2F)[C@@H]1CNS(C)(=O)=O [Example 358, N-({(2S,3R)-1-[(1S,2S)-2-(2′,6′-difluoro[1,1′-biphenyl]-2-yl)-2-fluorocyclopropane-1-carbonyl]-3-methylazetidin-2-yl}methyl)methanesulfonamide]",96,407.11 % of vehicle treatment
"CCS(=O)(=O)NC[C@@H]1[C@H](F)CN1C(=O)[C@@H]1C[C@@]1(F)c1ccccc1-c1c(F)cccc1F [Example 393, N-({(2R,3R)-1-[(1S,2S)-2-(2′,6′-difluoro [1,1′-biphenyl]-2-yl)-2-fluorocyclopropane-1-carbonyl]-3-fluoroazetidin-2-yl}methyl)ethanesulfonamide]",104,731.96 % of vehicle treatment
"Cc1ccc([C@]2(F)C[C@H]2C(=O)N2C[C@@H](F)[C@H]2CNS(C)(=O)=O)c(-c2c(F)cccc2F)c1 [Example 411, N-({(2R,3R)-1-[(1S,2S)-2-(2′,6′-difluoro-5-methyl [1,1′-biphenyl]-2-yl)-2-fluorocyclopropane-1-carbonyl]-3-fluoroazetidin-2-yl}methyl)methanesulfonamide]",95,361.41 % of vehicle treatment
"CCS(=O)(=O)NC[C@@H]1[C@H](F)CN1C(=O)[C@@H]1C[C@@]1(F)c1ccc(F)cc1-c1c(F)cccc1F [Example 412, N-({(2R,3R)-3-fluoro-1-[(1S,2S)-2-fluoro-2-(2′,5,6′-trifluoro[1,1′-biphenyl]-2-yl)cyclopropane-1-carbonyl]azetidin-2-yl}methyl)ethanesulfonamide]",111,573.33 % of vehicle treatment
"CNS(=O)(=O)NC[C@@H]1[C@H](F)CN1C(=O)[C@@H]1C[C@@]1(F)c1ccc(F)cc1-c1c(F)cccc1F [Example 423, N-({(2R,3R)-3-fluoro-1-[(1S,2S)-2-fluoro-2-(2′,5,6′-trifluoro[1,1′-biphenyl]-2-yl)cyclopropane-1-carbonyl]azetidin-2-yl}methyl)-N′-methylsulfuric Diamide]",102,391.59 % of vehicle treatment
"O=C([C@@H]1C[C@@]1(F)c1ccc(F)cc1-c1c(F)cccc1F)N1C[C@@H](F)[C@H]1CNS(=O)(=O)N1CCC1 [Example 446, N-({(2R,3R)-3-fluoro-1-[(1S,2S)-2-fluoro-2-(2′,5,6′-trifluoro[1,1′-biphenyl]-2-yl)cyclopropane-1-carbonyl]azetidin-2-yl}methyl)azetidine-1-sulfonamide]",100,–
"O=C([C@@H]1C[C@@]1(F)c1ccc(F)cc1-c1c(F)cccc1F)N1C[C@@H](F)[C@H]1CNS(=O)(=O)NC1CC1 [Example 447, N-cyclopropyl-N′-({(2R,3R)-3-fluoro-1-[(1S,2S)-2-fluoro-2-(2′,5,6′-trifluoro[1,1′-biphenyl]-2-yl)cyclopropane-1-carbonyl]azetidin-2-yl}methyl)sulfuric diamide]",90,–
"O=C([C@@H]1C[C@@]1(F)c1ccc(F)cc1-c1c(F)cccc1F)N1C[C@@H](F)[C@H]1CNS(=O)(=O)C(F)F [Example 448, 1,1-difluoro-N-({(2R,3R)-3-fluoro-1-[(1S,2S)-2-fluoro-2-(2′,5,6′-trifluoro[1,1′-biphenyl]-2-yl)cyclopropane-1-carbonyl]azetidin-2-yl}methyl)methanesulfonamide]",98,–
"O=C([C@@H]1C[C@@]1(F)c1ccc(F)cc1-c1c(F)cccc1F)N1C[C@@H](F)[C@H]1CNS(=O)(=O)C(F)(F)F [Example 449, 1,1,1-trifluoro-N-({(2R,3R)-3-fluoro-1-[(1S,2S)-2-fluoro-2-(2′,5,6′-trifluoro[1,1′-biphenyl]-2-yl)cyclopropane-1-carbonyl]azetidin-2-yl}methyl)methanesulfonamide]",94,–
"CS(=O)(=O)NCC1CCN(C(=O)[C@@H]2C[C@@]2(F)c2ccccc2-c2c(F)cccc2F)C1 (stereo partly drawn) [Example 450, N-({(3R)-1-[(1S,2S)-2-(2′,6′-difluoro[1,1′-biphenyl]-2-yl)-2-fluorocyclopropane-1-carbonyl]pyrrolidin-3-yl}methyl)methanesulfonamide, or N-({(3S)-1-[(1S,2S)-2-(2′,6′-difluoro[1,1′-biphenyl]-2-yl)-2-fluorocyclopropane-1-carbonyl]pyrrolidin-3-yl}methyl)methanesulfonamide]",96,–
"N-({(2S,3R)-1-[(1R,2R)-2-fluoro-2-(2′- fluoro[1,1′-biphenyl]-2- yl)cyclopropane-1-carbonyl]-3- methylazetidin-2- yl}methyl)ethanesulfonamide, or N- ({(2S,3R)-1-[(1S,2S)-2-fluoro-2-(2′- fluoro[1,1′-biphenyl]-2- yl)cyclopropane-1-carbonyl]-3- methylazetidin-2- yl}methyl)ethanesulfonamide [Example 439]",107,–
